Assay results as given in patent publication EP4603105A1, “PHARMACEUTICAL COMPOSITION CONTAINING CYCLIC COMPOUND HAVING SELECTIVE KRAS INHIBITORY EFFECT AGAINST HRAS AND NRAS” (CHUGAI SEIYAKU KABUSHIKI KAISHA, priority 2022, dated 2024).

Key:
[1] = target: GDP-bound KRAS wild-type protein (Homo sapiens, UniProt P01116); experiment: Binding to KRAS by surface plasmon resonance (SPR), dissociation constant KD; conditions: Single Cycle Kinetics
How it was run: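 Single-cycle kinetics on GDP-loaded biotin-Avi RAS captured to ~100–300 RU; 75 s ascending injections, 100 µL/min, 30°C. HBS pH 7.4 + 10 mM MgCl2/10 µM GDP/4% DMSO. 1:1 fit, KD.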

[2] = target: GDP-bound NRAS wild-type protein (Homo sapiens, UniProt P01111); experiment: Binding to NRAS by surface plasmon resonance (SPR), KD and KD ratio to KRAS; conditions: ratio of KD for GDP-bound NRAS wild-type protein to KD for KRAS
How it was run: (§1)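 Biotinylated GDP-bound RAS was captured at about 100–300 RU. Running buffer: HBS pH 7.4, 10 mM MgCl2, 10 µM GDP, 1 mM DTT, 0.01% Tween 20, 4% DMSO.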

[3] = target: HRAS wild-type protein (Homo sapiens, UniProt P01112); experiment: Binding to HRAS by surface plasmon resonance (SPR), KD and KD ratio to KRAS; conditions: ratio of KD for HRAS wild-type protein to KD for KRAS
How it was run: as §1

[4] = tested on: human lung cancer strain NCI-H441; experiment: NCI-H441 cell proliferation inhibitory activity (CellTiter-Glo, 4 days); format: cell-based; conditions: NCI-H441 cells, 4 days, read-out: NCl-H441 IC50
How it was run: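 Step one: dispense the test compound in serial DMSO dilutions. Step three: add the reagent and measure […].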

Chain of GDP-bound KRAS wild-type protein (P01116 1-188 isoform P01116-2): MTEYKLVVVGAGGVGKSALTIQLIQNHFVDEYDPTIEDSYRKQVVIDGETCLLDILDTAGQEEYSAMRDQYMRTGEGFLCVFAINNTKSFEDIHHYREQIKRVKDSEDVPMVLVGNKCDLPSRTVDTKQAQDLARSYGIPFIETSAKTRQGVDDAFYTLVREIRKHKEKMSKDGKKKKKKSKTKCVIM
Chain of HRAS wild-type protein (P01112 whole entry): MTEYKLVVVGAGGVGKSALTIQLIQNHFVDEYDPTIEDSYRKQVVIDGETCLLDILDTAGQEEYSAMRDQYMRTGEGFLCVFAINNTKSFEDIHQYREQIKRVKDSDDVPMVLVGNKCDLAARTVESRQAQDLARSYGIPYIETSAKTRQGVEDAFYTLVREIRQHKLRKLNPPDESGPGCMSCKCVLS
Chain of GDP-bound NRAS wild-type protein (P01111 whole entry): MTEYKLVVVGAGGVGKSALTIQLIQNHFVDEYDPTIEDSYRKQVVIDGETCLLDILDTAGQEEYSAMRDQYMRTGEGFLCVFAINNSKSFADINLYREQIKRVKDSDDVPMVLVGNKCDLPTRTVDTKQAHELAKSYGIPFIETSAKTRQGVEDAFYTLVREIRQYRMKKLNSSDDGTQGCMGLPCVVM

Compound | Kd [1] [nM] | NRAS /KRAS [2] | HRAS /KRAS [3] | IC50 [4] [nM]
CCC[C@H]1C(=O)N[C@@H](C2CCCC2)C(=O)N(C)CC(=O)N(C)[C@H]2C/C=C\CCN(C2=O)[C@@H](Cc2ccc(C(F)(F)F)cc2)C(=O)N(C)CC(=O)N[C@@H](CCc2ccc(C(F)(F)F)c(OC)c2)C(=O)N2CC3(CC3)C[C@H]2C(=O)N(C)C2(CCC2)C(=O)N(C)[C@@H](CC(C)(C)C)C(=O)N(C)[C@H](C(=O)N(C)C)CC(=O)N1C [PP3317] | 0.069 | B (a compound having 3 or more and less than 10 is denoted as B) | B (a compound having 3 or more and less than 10 is denoted as B) | 2.5
CCC[C@H]1C(=O)N[C@@H](C2CCCC2)C(=O)N(C)CC(=O)N(C)[C@H]2C/C=C\CCN(C2=O)[C@@H](Cc2ccc(C)cc2)C(=O)N(C)CC(=O)N[C@@H](CCc2ccc(C(F)(F)F)c(OC)c2)C(=O)N2CC3(CC3)C[C@H]2C(=O)N(C)C2(CCC2)C(=O)N(C)[C@@H]([C@@H](C)CC)C(=O)N(C)[C@H](C(=O)N(C)C)CC(=O)N1C [PP3318] | 0.26 | A (a compound having 10 or more and less than 20 is denoted as A) | A (a compound having 10 or more and less than 20 is denoted as A) | 6.5
CCC[C@H]1C(=O)N[C@@H](C2CCCC2)C(=O)N(C)CC(=O)N(C)[C@H]2C/C=C\CCN(C2=O)[C@@H](Cc2ccc(C)cc2)C(=O)N(C)CC(=O)N[C@@H](CCc2ccc(C(F)(F)F)c(OC)c2)C(=O)N2CC3(CC3)C[C@H]2C(=O)N(C)C2(CCC2)C(=O)N(C)[C@@H](CC(C)(C)C)C(=O)N(C)[C@H](C(=O)N(C)C)CC(=O)N1C [PP3320] | 0.037 | B (a compound having 3 or more and less than 10 is denoted as B) | B (a compound having 3 or more and less than 10 is denoted as B) | 4.6
CCC[C@H]1C(=O)N[C@@H](C2CCCC2)C(=O)N(C)CC(=O)N(C)[C@H]2C/C=C\CCN(C2=O)[C@@H](Cc2ccc(C(F)(F)F)cc2)C(=O)N(C)CC(=O)N[C@@H](CCc2ccc(C(F)(F)F)c(Cl)c2)C(=O)N2CC3(CC3)C[C@H]2C(=O)N(C)C2(CCC2)C(=O)N(C)[C@@H](C(CC)CC)C(=O)N(C)[C@H](C(=O)N(C)C)CC(=O)N1C [PP3321] | 0.85 | AA (a compound having 20 or more is denoted as AA) | A (a compound having 10 or more and less than 20 is denoted as A) | 8
CCC[C@H]1C(=O)N[C@@H](C2CCCC2)C(=O)N(C)CC(=O)N(C)[C@H]2C/C=C\CCN(C2=O)[C@@H](Cc2ccc(C)cc2)C(=O)N(C)CC(=O)N[C@@H](CCc2ccc(C(F)(F)F)c(Cl)c2)C(=O)N2CC3(CC3)C[C@H]2C(=O)N(C)C2(CCC2)C(=O)N(C)[C@@H](C2CCCC2)C(=O)N(C)[C@H](C(=O)N(C)C)CC(=O)N1C [PP3322] | 0.063 | A (a compound having 10 or more and less than 20 is denoted as A) | B (a compound having 3 or more and less than 10 is denoted as B) | 7.9
CCC[C@H]1C(=O)N[C@@H](C2CCCC2)C(=O)N(C)CC(=O)N(C)[C@H]2C/C=C\CCN(C2=O)[C@@H](Cc2ccc(C(F)(F)F)cc2)C(=O)N(C)CC(=O)N[C@@H](CCc2ccc(C(F)(F)F)c(Cl)c2)C(=O)N2CC3(CC3)C[C@H]2C(=O)N(C)C2(CCC2)C(=O)N(C)[C@@H]([C@@H](C)CC)C(=O)N(C)[C@H](C(=O)N(C)C)CC(=O)N1C [PP3323] | 1.3 | AA (a compound having 20 or more is denoted as AA) | A (a compound having 10 or more and less than 20 is denoted as A) | 9.2
CCC[C@H]1C(=O)N[C@@H](C2CCCC2)C(=O)N(C)CC(=O)N(C)[C@H]2C/C=C\CCN(C2=O)[C@@H](Cc2ccc(C)cc2)C(=O)N(C)CC(=O)N[C@@H](CCc2ccc(C(F)(F)F)c(Cl)c2)C(=O)N2CC3(CC3)C[C@H]2C(=O)N(C)C2(CCC2)C(=O)N(C)[C@@H](C(CC)CC)C(=O)N(C)[C@H](C(=O)N(C)C)CC(=O)N1C [PP3324] | 0.23 | AA (a compound having 20 or more is denoted as AA) | B (a compound having 3 or more and less than 10 is denoted as B) | 16.4
CCC[C@H]1C(=O)N[C@@H](C2CCCC2)C(=O)N(C)CC(=O)N(C)[C@H]2C/C=C\CCN(C2=O)[C@@H](Cc2ccc(C)cc2)C(=O)N(C)CC(=O)N[C@@H](CCc2ccc(C(F)(F)F)c(Cl)c2)C(=O)N2CC3(CC3)C[C@H]2C(=O)N(C)C2(CCC2)C(=O)N(C)[C@@H]([C@@H](C)CC)C(=O)N(C)[C@H](C(=O)N(C)C)CC(=O)N1C [PP3326] | 0.22 | A (a compound having 10 or more and less than 20 is denoted as A) | A (a compound having 10 or more and less than 20 is denoted as A) | 12.6
CCC[C@H]1C(=O)N[C@@H](C2CCCC2)C(=O)N(C)CC(=O)N(C)[C@H]2C/C=C\CCN(C2=O)[C@@H](Cc2ccc(C)cc2)C(=O)N(C)CC(=O)N[C@@H](CCc2ccc(C(F)(F)F)c(Cl)c2)C(=O)N2CC3(CC3)C[C@H]2C(=O)N(C)C2(CCC2)C(=O)N(C)[C@@H](CC(C)(C)C)C(=O)N(C)[C@H](C(=O)N(C)C)CC(=O)N1C [PP3328] | 0.026 | A (a compound having 10 or more and less than 20 is denoted as A) | B (a compound having 3 or more and less than 10 is denoted as B) | 1.7
CCC[C@H]1C(=O)N[C@@H]([C@@H](C)CC)C(=O)N(C)CC(=O)N(C)[C@H]2C/C=C\CCN(C2=O)[C@@H](Cc2ccc(C)cc2)C(=O)N(C)CC(=O)N[C@@H](CCc2cc(F)c(C(F)(F)F)c(F)c2)C(=O)N2CC3(CC3)C[C@H]2C(=O)N(C)C2(CCC2)C(=O)N(C)[C@@H](C(CC)CC)C(=O)N(C)[C@H](C(=O)N(C)C)CC(=O)N1C [PP3329] | 0.23 | A (a compound having 10 or more and less than 20 is denoted as A) | B (a compound having 3 or more and less than 10 is denoted as B) | 8.7
C=CC[C@H]1C(=O)N(C)[C@H](C(=O)N(C)C)CC(=O)N(C)[C@@H](CCC)C(=O)N[C@@H]([C@@H](C)CC)C(=O)N(C)CC(=O)N(C)[C@H]2C/C=C\CCN(C2=O)[C@@H](Cc2ccc(C(F)(F)F)cc2)C(=O)N(C)CC(=O)N[C@@H](CCc2ccc(C(F)(F)F)c(OC)c2)C(=O)N2C[C@H](OCC)C[C@H]2C(=O)N(C)C2(CCC2)C(=O)N1C [PP3330] | 1.1 | A (a compound having 10 or more and less than 20 is denoted as A) | A (a compound having 10 or more and less than 20 is denoted as A) | 80.4
CCC[C@H]1C(=O)N[C@@H]([C@@H](C)CC)C(=O)N(C)CC(=O)N(C)[C@H]2C/C=C\CCN(C2=O)[C@@H](Cc2ccc(C)cc2)C(=O)N(C)CC(=O)N[C@@H](CCc2cc(F)c(C(F)(F)F)c(F)c2)C(=O)N2CC3(CC3)C[C@H]2C(=O)N(C)C2(CCC2)C(=O)N(C)[C@@H]([C@@H](C)CC)C(=O)N(C)[C@H](C(=O)N(C)C)CC(=O)N1C [PP3331] | 0.1 | A (a compound having 10 or more and less than 20 is denoted as A) | A (a compound having 10 or more and less than 20 is denoted as A) | 7
C=C(C)C[C@H]1C(=O)N(C)[C@H](C(=O)N(C)C)CC(=O)N(C)[C@@H](CCC)C(=O)N[C@@H]([C@@H](C)CC)C(=O)N(C)CC(=O)N(C)[C@H]2C/C=C\CCN(C2=O)[C@@H](Cc2ccc(C(F)(F)F)cc2)C(=O)N(C)CC(=O)N[C@@H](CCc2ccc(C(F)(F)F)c(OC)c2)C(=O)N2C[C@H](OCC)C[C@H]2C(=O)N(C)C2(CCC2)C(=O)N1C [PP3332] | 0.86 | A (a compound having 10 or more and less than 20 is denoted as A) | B (a compound having 3 or more and less than 10 is denoted as B) | 29.3
CCC[C@H]1C(=O)N[C@@H]([C@@H](C)CC)C(=O)N(C)CC(=O)N(C)[C@H]2C/C=C\CCN(C2=O)[C@@H](Cc2ccc(C)cc2)C(=O)N(C)CC(=O)N[C@@H](CCc2cc(F)c(C(F)(F)F)c(F)c2)C(=O)N2CC3(CC3)C[C@H]2C(=O)N(C)C2(CCC2)C(=O)N(C)[C@@H](CC(C)(C)C)C(=O)N(C)[C@H](C(=O)N(C)C)CC(=O)N1C [PP3333] | 0.019 | B (a compound having 3 or more and less than 10 is denoted as B) | B (a compound having 3 or more and less than 10 is denoted as B) | 4.5
